Reference: patent US7709537B1, “Food materials useful in preventing and ameliorating metabolic bone diseases and preventives/remedies for metabolic bone diseases comprising these materials” (Meiji Dairiese Corporation, priority 1999, dated 2010)

Assays:
[1] = system: human osteoblasts (SaM-1); assay: Mineralization (Ca and P accumulation in extracellular matrices) of human osteoblasts; type: cell-based; conditions: SaM-1 cells, 32 days, 2 mM glycerophosphoric acid
Protocol: Employed were cultured human osteoblasts (SaM-1), which had been established from the periosteum of an ulna of a person obtained during a surgical operation of a fractured bone. Those SaM-1 cells were equipped with all the characteristics of osteoblasts (Koshihara, Y. et al.: In Vitro Cell, Dev. Biol., 25, 37-43, 1989). SaM-1 cells are known to promote mineralization in the presence of 2 mM a-glycerophosphoric acid, depending upon the concentration of 1α,25(OH)2D3.
SaM-1 cells of 18 PDL (population doubling level) were seeded to a 12-well plate, and cultured to a confluent state. a-Glycerophosphoric acid, a mineralization promoter, was then added to 2 mM. […]
Ca in each extracellular matrix was quantitated by using a kit (“Calcium C Test Wako”) based on the o-cresolphthalein complexone method (OCPC method).
After completion of the culture, the cells were washed with Hanks' solution. […] Five minutes later, the reaction mixtures were measured by an absorptiometer (570 nm)(FIG. 6).
P in each extracellular matrix was quantitated by the method proposed by Chen et al. (Chen, P. S. et al.: Anal. Chem., 28, 1756-1758, 1956).
0.84% Ammonium molybdate, 2 N sulfuric acid and 10% ascorbic acid were mixed at 3:3:1 (volume ratio) to prepare a reaction reagent. The extracts (100 μL) obtained in the above-described Ca quantitation were each diluted with distilled water (800 μL). […]

[2] = system: stromal cell line ST-2 derived from mouse bone marrow; assay: ALP activity of ST-2 cells cultured with ACNQ (osteogenesis promoting effect); type: cell-based
Protocol: Cells of the stromal cell line ST-2 derived from mouse bone marrow (Udagawa, N. et al.: Endocrinology 125, 1805-1813, 1989) were used as osteoblasts. These cells have similar osteoclast differentiation inducing ability for bone marrow cells as osteoblasts.
The cells were seeded in the individual wells of a 96-well plate at 4×10^4 cells/well, and cultured for 1 day in RPMI 1640 medium which contained 10% FBS, penicillin G and streptomycin.
The medium was replaced by the same medium which contained ACNQ, and cultured further for 3 days. After the culture, the ALP activity of cells was assayed.
(§1) The cells were washed with PBS, and then immobilized with ethanol for 1 minute. An enzyme reaction solution (a buffer containing p-nitrophenyl phosphate, 0.1 M glycine, 1 mM MgCl2 and 0.1 mM ZnCl2 as substrates, pH 10.5) of 37° C. was added to have the cells reacted at 37° C. for 30 minutes. An equiamount of 0.05 N NaOH was added to quench the reaction. ALP activity was expressed in terms of units, with 1 unit representing the amount of p-nitrophenol formed in a minute per mg-protein as measured in terms of absorbance at 415 nm). Protein contents were determined using a protein assay kit (product of Bio-Rad Lab.). Further, the cytotoxicity of ACNQ was measured by MTT assay (FIG. 5).

[3] = system: stromal cell line ST-2 derived from mouse bone marrow; assay: Cytotoxicity of ACNQ by MTT assay in ST-2 cells; type: cell-based; conditions: at the peak concentration of ALP activity, 1 μg/mL (FIG. 5)
Protocol: as §1

[4] = system: human osteoblasts (SaM-1); assay: Cytotoxicity by free LDH in culture supernatant of SaM-1 cells; type: cell-based; conditions: 32nd day of culture, 10^−5 M to 10^−7 M (FIG. 8)
Protocol: Using “LDH-Cytotoxic Test Wako” (cytotoxicity assay kit), free LDH in each culture supernatant was measured to investigate the cytotoxicity of ACNQ. Culture supernatants on the 32nd day of culture were sampled, and subsequent to a staining reaction, their LDH concentrations were measured by using a microplate reader (540 nm).

[5] = system: osteoclast-like polykaryocytes from ddY mouse co-culture; assay: Formation of bone resorption lacunae on a piece of dentinum by osteoclasts; type: cell-based; conditions: 24 hours on dentinum, even at the highest concentration, 7.5 μg/mL (FIG. 11)
Protocol: Investigated was the effect of ACNQ on the formation of bone resorption lacunae on a piece of dentinum by osteoclasts.
As in the test (2) of Test 4, a culture (20 mL) containing primary osteoblast-like interstitial cells, which had been derived from the calvariae of ddY mice newborn, and bone marrow cells, which had been isolated from the femurs and shinbones of the same strain mice (males of 6 to 9 weeks of age), at a ratio of 1×10^6 cells to 1×10^7 cells in a 100 mm dish was co-cultured for 6 to 8 days on a collagen gel in αMEM medium in which 10% FEB and 10^−8 M 1α,25(OH)2D3 had been added. Medium replacement was conducted on every third days. After the culture, a 0.2% collagenase solution was added. The thus-obtained mixture was gently shaken at 37° C. for 20 minutes to digest the collagen gel, and differentiation-induced osteoclast-like polykaryocytes were collected. The count of osteoclasts obtained by this method was at most 4×10^4 cells/100 mm-dish.
(§2) Those osteoclast-like polykaryocytes were prepared to 4×10^3 cells/mL with αMEM medium containing 10% FBS, seeded at 100 μL/well into wells (96 wells) in which pieces of dentinum were placed, respectively, and cultured at 37° C. for 2 hours. […] After the staining solution was removed, resorption lacunae formed in the surface of each piece of dentinum as a result of binging by […] were counted under a microscope. […]

[6] = system: human bone marrow cells (monocytes); assay: Formation of TRAP-positive polykaryocytes in culture of human bone marrow monocytes; type: cell-based
Protocol: (1) Human bone marrow cells obtained during an artificial caput replacement operation were subjected to density-gradient centrifugation to collect monocytes. Those monocytes were seeded into α-MEM medium, which contained 20% equine serum and 10^−8 M 1α,25(OH)2D3, to give 8×10^5 cells/well (079 cm^2), and were then cultured for […]. The cultures were each replaced twice a week by a half of its volume each time. Addition of ACNQ was conducted at the beginning.
On the 16th day of culture, the cultures were treated with pronase and EDTA to eliminate stromal cells. On the following day, the cells were washed with PBS(−) and then immobilized with formalin. The formalin-immobilized cells were subjected to TRAP staining, and the TRAP-positive polykaryocyte counts of the respective wells were determined. Vitamin K1 was used as a control.

[7] = system: osteoclasts from ddY mouse co-culture; assay: Cytotoxicity against osteoclasts on a piece of dentinum; type: cell-based; conditions: differentiated and matured mouse osteoclasts (FIG. 11)
Protocol: A still further investigation was also conducted on TRAP-positive cells formed by a co-culture system of primary osteoblast-like interstitial cells derived from the calvaria of a mouse newborn and mouse bone marrow cells. […] Effects of ACNQ on the activity of a bone re sorbing system were then investigated. Measured were the formation of resorption lacunae and cytotoxicity on a piece of dentinum in an osteoclast forming system by co-culture of primary osteoblast-like interstitial cells derived from the calvaria of the above mouse newborn and mouse bone marrow cells.
as §2, with “hours. After the culture, the individual cultures were transferred to 24 wells or 48 wells in which a culture medium was placed at 0.5 to 1.5 mL/well. At the same time, ACNQ solutions of various concentrations were added to the wells, respectively, followed by culture at 37° C. for 24 hours.” for “hours.”

[8] = system: primary osteoblast-like interstitial cells and bone marrow cells of ddY mice; assay: Osteoclast formation in co-culture of mouse osteoblast-like interstitial cells and bone marrow cells; type: cell-based
Text: (2) The calvaria of ddY mice newborn were enzymatically treated (with a mixed solution of collagenase and disperse) to obtain primary osteoblast-like interstitial cells. On the other hand, bone marrow cells were isolated from the femurs and shinbones of the same strain mice (males of 6 to 9 weeks of age). The primary osteoblast-like interstitial cells and bone marrow cells were co-cultured in the presence of ACNQ to investigate differentiation induction effect of ACNQ on osteoclasts.
Using αMEM added with 10% FBS, a culture which contained the primary osteoblast-like interstitial cells and the bone marrow cells at a cell count ratio of about 1:20 was co-cultured in the presence of 10^−8 M to 10^−10 M 1α,25(OH)2D3 for 6 to 8 days. During the culture period, ACNQ solutions of various concentrations and as a control for comparison, vitamin K2 which is known to inhibit the formation of osteoclasts, were added, respectively, upon culture medium replacement (replaced by a half of the volume of the culture medium; replaced on every third days).
Cells, which were positive to TRAP staining and internally contained 3 or more nuclei per cell, were collected as differentiated osteoclasts. […]

[9] = system: osteoclast formation; conditions: side chains of vitamin K1 or K2; Hara, K. et al.: Bone, 16, 179-184, 1995; cited from earlier work

C=C1/C(=C\C=C2/CCC[C@]3(C)[C@@H]([C@H](C)CCCC(C)(C)O)CC[C@@H]23)C[C@@H](O)C[C@@H]1O [1α,25(OH)2D3, reference compound]
mineralization (Ca and P accumulation) ([1]; 10^−8 M to 10^−9 M (FIGS. 6 and 7)): promote mineralization concentration-dependently

NC1=C(C(=O)O)C(=O)c2ccccc2C1=O [ACNQ, 2-amino-3-carboxy-1,4-naphthoquinone]
ACNQ concentration at which ALP activity reached the peak ([2]; 3 days culture (FIG. 4)): ~1 µg/mL
ALP activity of the cells ([2]; 3 days culture, up to an ACNQ concentration of 1 μg/mL (FIG. 4)): increased concentration-dependently
cytotoxicity (MTT assay, viable cell count) [3]: cytotoxicity was not observed at all
cytotoxicity (free LDH in culture supernatant) [4]: not determined to show cytotoxicity
bone resorbing activity of osteoclasts (resorption lacunus counts) [5]: did not lower the bone resorbing activity of osteoclasts
formation of osteoclasts (TRAP-positive polykaryocytes) ([6]; human monocytes with 10^−8 M 1α,25(OH)2D3, ACNQ 10^−8 M to 10^−5 M (FIG. 9)): inhibited the formation of osteoclasts concentration-dependently
inhibitory effect on osteoclast formation compared with vitamin K1 ([6]; human monocytes, same concentration as vitamin K1 (FIG. 9)): significantly stronger than that available from vitamin K1
cytotoxicity against osteoclasts [7]: does not exhibit cytotoxicity against osteoclasts
differentiation and maturation of monocytes into osteoclasts (TRAP-positive cells with 3 or more nuclei) ([8]; mouse co-culture with 1α,25(OH)2D3, 6 to 8 days, ACNQ 0.15 to 15 μg/mL (FIG. 10)): inhibited differentiation and maturation
formation of osteoclasts ([8]; mouse co-culture, ACNQ at 1.5 μg/mL and higher (FIG. 10)): considerably inhibited the formation of osteoclasts
mineralization (Ca and P accumulation) ([1]; 10^−5 M to 10^−7 M (FIGS. 6 and 7)): promote mineralization concentration-dependently

C/C(=C\CO)CCC[C@H](C)CCC[C@H](C)CCCC(C)C [phytol]
osteoclast-formation inhibitory effect [9]: weak in the inhibitory effect
